Source: PubChem BioAssay (NCI)
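Test compounds were applied to cells in 96-well plates for 48 hours at 5 doses. GI50 is the concentration that inhibits growth by half. TGI denotes the concentration required for complete inhibition of growth.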

Key:
Assay in all cases: NCI anticancer screen, dose series, 48 h
[1] = system: IGROV1 ovarian
[2] = system: CAKI-1 renal
[3] = system: NCI-H460 lung
[4] = system: SW-620 colon
[5] = system: U251 CNS
[6] = system: LOX IMVI melanoma
[7] = system: 786-0 renal
[8] = system: SK-MEL-5 melanoma
[9] = system: MCF7 breast
[10] = system: OVCAR-4 ovarian
[11] = system: SN12C renal
[12] = system: SF-539 CNS
[13] = system: EKVX NSCLC
[14] = system: MDA-MB-435
[15] = system: KM12 colon
[16] = system: DU-145 prostate
[17] = system: M14 melanoma
[18] = system: SK-MEL-28 melanoma
[19] = system: A549 NSCLC
[20] = system: UACC-62 melanoma
[21] = system: SNB-19 CNS
[22] = system: COLO 205 colon
[23] = system: T-47D breast
[24] = system: A498 renal
[25] = system: NCI-H23 lung
[26] = system: SK-OV-3 ovarian
[27] = system: HCC-2998 colon
[28] = system: UACC-257 melanoma
[29] = system: CCRF-CEM leukemia
[30] = system: MDA-MB-231 breast
[31] = system: HOP-62 NSCLC
[32] = system: RXF 393 renal
[33] = system: NCI-H226 lung
[34] = system: BT-549 breast
[35] = system: SNB-75 CNS
[36] = system: SK-MEL-2 melanoma
[37] = system: HT29 colon
[38] = system: UO-31 renal
[39] = system: TK-10 renal
[40] = system: HCT-116 colon
[41] = system: MALME-3M melanoma
[42] = system: SR leukemia
[43] = system: ACHN renal
[44] = system: PC-3 prostate
[45] = system: SF-295 CNS
[46] = system: NCI-H522 lung
[47] = system: MOLT-4 leukemia
[48] = system: HCT-15 colon
[49] = system: HS 578T breast
[50] = system: OVCAR-5 ovarian
[51] = system: OVCAR-8 ovarian
[52] = system: K-562 leukemia
[53] = system: HOP-92 NSCLC
[54] = system: SF-268 CNS
[55] = system: HL-60(TB) leukemia
[56] = system: MDA-MB-468 breast
[57] = system: OVCAR-3 ovarian
[58] = system: RPMI-8226 leukemia
[59] = system: NCI/ADR-RES ovarian

O=C(/C=C/c1ccccc1)c1nc2ccccc2n1Cc1ccc(F)cc1
GI50 [1]: 2.33 µM
TGI [1]: 5.89 µM
GI50 [2]: 2.97 µM
TGI [2]: 12.5 µM
GI50 [3]: 2.14 µM
TGI [3]: 5.38 µM
GI50 [4]: 2.15 µM
TGI [4]: 4.45 µM
GI50 [5]: 1.62 µM
TGI [5]: 3.19 µM
GI50 [6]: 1.62 µM
TGI [6]: 3.1 µM
GI50 [7]: 1.82 µM
TGI [7]: 3.49 µM
GI50 [8]: 3.49 µM
TGI [8]: 14.4 µM
GI50 [9]: 1.77 µM
TGI [9]: 6.02 µM
GI50 [10]: 11.1 µM
TGI [10]: 28.6 µM
GI50 [11]: 3.7 µM
TGI [11]: 13.8 µM
GI50 [12]: 2.01 µM
TGI [12]: 4.18 µM
GI50 [13]: 4.86 µM
TGI [13]: 17 µM
GI50 [14]: 2.23 µM
TGI [14]: 5.92 µM
GI50 [15]: 2.18 µM
TGI [15]: 5.01 µM
GI50 [16]: 3.67 µM
TGI [16]: 14.2 µM
GI50 [17]: 3.17 µM
TGI [17]: 11.4 µM
GI50 [18]: 2.18 µM
TGI [18]: 5.25 µM
GI50 [19]: 4.82 µM
TGI [19]: 21.1 µM
GI50 [20]: 2.42 µM
TGI [20]: 10.4 µM
GI50 [21]: 2.13 µM
TGI [21]: 5.76 µM
GI50 [22]: 3.18 µM
TGI [22]: 7.86 µM
GI50 [23]: 2.71 µM
TGI [23]: 12.1 µM
GI50 [24]: 18.5 µM
TGI [24]: 33.1 µM
GI50 [25]: 2.66 µM
TGI [25]: 8.6 µM
GI50 [26]: 18.9 µM
TGI [26]: 45.5 µM
GI50 [27]: 1.83 µM
TGI [27]: 3.91 µM
GI50 [28]: 4.1 µM
TGI [28]: 17 µM
GI50 [29]: 4.43 µM
TGI [29]: > 100 µM
GI50 [30]: 1.98 µM
TGI [30]: 4.17 µM
GI50 [31]: 3.93 µM
TGI [31]: 12.6 µM
GI50 [32]: 1.56 µM
TGI [32]: 3 µM
GI50 [33]: 13.8 µM
TGI [33]: 34.4 µM
GI50 [34]: 2.54 µM
TGI [34]: 7.59 µM
GI50 [35]: 1.72 µM
TGI [35]: 10.9 µM
GI50 [36]: 5.11 µM
TGI [36]: 17.1 µM
GI50 [37]: 3.26 µM
TGI [37]: 9.14 µM
GI50 [38]: 1.77 µM
TGI [38]: 4.21 µM
GI50 [39]: 2.9 µM
TGI [39]: 10.4 µM
GI50 [40]: 1.92 µM
TGI [40]: 3.84 µM
GI50 [41]: 3.52 µM
TGI [41]: 14.5 µM
GI50 [42]: 2.99 µM
TGI [42]: > 100 µM
GI50 [43]: 3.66 µM
TGI [43]: 12.6 µM
GI50 [44]: 4.13 µM
TGI [44]: 26.7 µM
GI50 [45]: 3.19 µM
TGI [45]: 10.8 µM
GI50 [46]: 2.42 µM
TGI [46]: 5.85 µM
GI50 [47]: 3.16 µM
TGI [47]: > 100 µM
GI50 [48]: 1.75 µM
TGI [48]: 3.66 µM
GI50 [49]: 4.76 µM
TGI [49]: 47.6 µM
GI50 [50]: 3.31 µM
TGI [50]: 11.6 µM
GI50 [51]: 2.56 µM
TGI [51]: 6.88 µM
GI50 [52]: 3.1 µM
TGI [52]: > 100 µM
GI50 [53]: 4.03 µM
TGI [53]: 20.4 µM
GI50 [54]: 7.22 µM
TGI [54]: 30.2 µM
GI50 [55]: 2.44 µM
TGI [55]: 12.4 µM
GI50 [56]: 1.92 µM
TGI [56]: 3.73 µM
GI50 [57]: 2 µM
TGI [57]: 4.14 µM

Cc1ccc(/C=C/c2n(Cc3ccc4ccccc4c3)c3ccccc3[n+]2Cc2ccc3ccccc3c2)cc1
GI50 [8]: 0.905 µM
TGI [8]: 2.11 µM
GI50 [11]: 1.45 µM
TGI [11]: 2.79 µM
GI50 [12]: 0.475 µM
TGI [12]: 1.71 µM
GI50 [18]: 0.726 µM
TGI [18]: 2.01 µM
GI50 [20]: 1.27 µM
TGI [20]: 2.56 µM
GI50 [58]: 0.331 µM
TGI [58]: 2.3 µM
GI50 [32]: 0.325 µM
TGI [32]: 1.39 µM
GI50 [59]: 1.9 µM
TGI [59]: 4.56 µM
GI50 [35]: 0.729 µM
TGI [35]: 2.15 µM
GI50 [38]: 1.44 µM
TGI [38]: 2.77 µM
GI50 [41]: 0.465 µM
TGI [41]: 1.74 µM
GI50 [43]: 0.782 µM
TGI [43]: 2.03 µM
GI50 [45]: 0.399 µM
TGI [45]: 1.66 µM
GI50 [49]: 0.382 µM
TGI [49]: 1.74 µM
GI50 [50]: 1.1 µM
TGI [50]: 2.3 µM
GI50 [54]: 1.5 µM
TGI [54]: 3.88 µM
